Measured values as given in US12428433B2, “Fluorine-containing heterocyclic derivatives with macrocyclic structure and use thereof” (ScinnoHub Pharmaceutical Co., Ltd, priority 2019, dated 2025).

Tests used:
TRKC(G623R) = TRKC(G623R) (Homo sapiens (Human), UniProt Q16288, G623R); assay: Kinase inhibitory activity (Caliper mobility shift), TRKC(G623R); assay type: biochemical
Procedure: Sundia Meditech (Shanghai) Co., Ltd. was commissioned to complete the testing example.
3.1 A tested compound was accurately weighed and dissolved in 100% DMSO to prepare into a 10 mM solution.
250 nL of the compound of 100 times final concentration was transferred to a reaction plate OptiPlate-384F by a dispenser Echo 550.
3.2.3 A kinase solution of 2.5 times final concentration was prepared with 1×kinase buffer.
3.2.4 10 μL of kinase solution of 2.5 times final concentration was added into a compound well and a positive control well respectively; and 10 μL of 1×kinase buffer was added into a negative control well.
3.2.5 The reaction plate was shaken and mixed evenly, and then incubated at room temperature for 10 minutes.
3.2.6 Mixed solutions of ATP and kinase substrate 22 of 5 times and 3 times final concentrations were prepared with 1×kinase buffer.
3.2.7 15 μL of mixed solution of ATP and substrate of 5 times or 3 times final concentration was added.
3.2.8 The 384-well plate was centrifuged at 1,000 rpm for 30 seconds, shaken and mixed evenly, and then incubated at room temperature for corresponding time.
3.2.9 The kinase reaction was terminated.
3.2.10 A conversion rate was read by the microplate reader Caliper EZ Reader.
Calculation Formula Inhibition rate %=(conversion rate % maximum−conversion rate % sample)/(conversion rate % maximum−conversion rate % minimum)×100
wherein the conversion rate % sample was: a reading number of a conversion rate of a sample; the conversion rate % minimum was: an average value of the negative control well, which represented a reading number of a conversion rate without an enzyme activity well; and the conversion rate % maximum was: an average value of a ratio of the positive control well, which represented a reading number of a conversion rate without a compound inhibition well.
Fitting of dose-effect curve: a log value of concentration was used as an X axis, a percentage inhibition rate was used as a Y axis, and the dose-effect curve was fitted by a log (inhibitor) vs. response-variable slope of the analysis software GraphPad Prism 5 (four-parameter model fitting), so as to obtain an IC50 value of each compound on enzyme activity.

[1] = Stability test in liver microsomes, mouse; assay type: in vitro ADME; settings: for half-life at 1 μM: 0.5 mg/mL
Procedure: A stability of the compound of the present application in liver microsomes of human, rat and mouse was measured.
3.1 A buffer and a liver microsome were prepared into an incubation solution according to the following table:
3.2 The following two experiments were carried out respectively: a) incubation system added with coenzyme factor NADPH: 25 μL of NADPH (10 mM) was added into an incubation solution (mainly comprising a liver microsome and a phosphate buffer), so that final concentrations of the liver microsome and the NADPH were 0.5 mg/mL and […] respectively; and b) incubation system without coenzyme factor NADPH: 25 μL of phosphate buffer (100 mM) was added into the incubation solution, so that the final concentration of the liver microsome was 0.5 mg/mL. The incubation systems above were preheated at 37° C. for 10 minutes respectively.
3.3 2.5 μL of positive control compound or a tested compound solution (100 μM) was added into the incubation systems described in “step 3.2” above respectively for reaction, and the positive control compound was verapamil (purchased from Sigma), so that a final concentration of the tested compound of the present application or the positive control compound was 1 μM. The incubation solution added with the compound was incubated in water at 37° C. in batches.
3.4 30 μL of aliquot was taken from a reaction solution after 0.5 minute, 5 minutes, 15 minutes, 30 minutes and 45 minutes respectively, and the reaction was terminated by adding 5 times volume of cold acetonitrile containing 200 nM caffeine and 100 nM tolbutamide. The aliquot was centrifuged at a gravity acceleration of 3,220 g for 40 minutes, and 100 μL of supernatant was mixed with 100 μL of ultrapure water, and then used for LC-MS/MS analysis.
A peak area was determined by an extracted ion chromatogram. A slope value k was determined by linear regression of a remaining percentage of a parent drug relative to […] an incubation time curve.
In-vitro half-life periods (t1/2) were respectively calculated and determined according to the slope value, and an average value of the in-vitro half-life periods was converted into an in-vitro intrinsic clearance rate (CLint, represented by μL/min/mg protein).

TRKa = TRKa (Homo sapiens (Human), UniProt P04629); assay: Kinase inhibitory activity (Caliper mobility shift), TRKa; assay type: biochemical
Procedure: (§1) […] (Shanghai) Co., Ltd. was commissioned to complete the testing example. […] 3.1 A tested compound was accurately weighed and dissolved in 100% DMSO to prepare into a 10 mM solution. […] 3.2.3 A kinase solution of 2.5 times final concentration was prepared with 1×kinase buffer. […] 3.2.5 The reaction plate was shaken and mixed evenly, and then incubated at room temperature for 10 minutes. 3.2.6 Mixed solutions of ATP and kinase substrate 22 of 5 times and 3 times final concentrations were prepared with 1×kinase buffer. 3.2.7 15 μL of mixed solution of ATP and substrate of 5 times or 3 times final concentration was added. 3.2.8 The 384-well plate was centrifuged at 1,000 rpm for 30 seconds, shaken and mixed evenly, and then incubated at room temperature for corresponding time. 3.2.9 The kinase reaction was terminated. 3.2.10 A conversion rate was read by the microplate reader Caliper EZ Reader. Calculation Formula Inhibition rate %=(conversion rate % maximum-conversion rate % sample)/(conversion rate % maximum-conversion rate % minimum)×100 wherein the conversion rate % sample was: a reading number of a conversion rate of a sample; the conversion rate % minimum was: an average value of the negative control well, which represented a reading number of a conversion rate without an enzyme activity well; and the conversion rate % maximum was: an average value of a ratio of the positive control well, which represented a reading number of a conversion rate without a compound inhibition well.

TRKA(G595R) = TRKA(G595R) (Homo sapiens (Human), UniProt P04629, G595R); assay: Kinase inhibitory activity (Caliper mobility shift), TRKA(G595R); assay type: biochemical
Procedure: as §1

Chain of TRKC(G623R) (Q16288 32-839 G623R): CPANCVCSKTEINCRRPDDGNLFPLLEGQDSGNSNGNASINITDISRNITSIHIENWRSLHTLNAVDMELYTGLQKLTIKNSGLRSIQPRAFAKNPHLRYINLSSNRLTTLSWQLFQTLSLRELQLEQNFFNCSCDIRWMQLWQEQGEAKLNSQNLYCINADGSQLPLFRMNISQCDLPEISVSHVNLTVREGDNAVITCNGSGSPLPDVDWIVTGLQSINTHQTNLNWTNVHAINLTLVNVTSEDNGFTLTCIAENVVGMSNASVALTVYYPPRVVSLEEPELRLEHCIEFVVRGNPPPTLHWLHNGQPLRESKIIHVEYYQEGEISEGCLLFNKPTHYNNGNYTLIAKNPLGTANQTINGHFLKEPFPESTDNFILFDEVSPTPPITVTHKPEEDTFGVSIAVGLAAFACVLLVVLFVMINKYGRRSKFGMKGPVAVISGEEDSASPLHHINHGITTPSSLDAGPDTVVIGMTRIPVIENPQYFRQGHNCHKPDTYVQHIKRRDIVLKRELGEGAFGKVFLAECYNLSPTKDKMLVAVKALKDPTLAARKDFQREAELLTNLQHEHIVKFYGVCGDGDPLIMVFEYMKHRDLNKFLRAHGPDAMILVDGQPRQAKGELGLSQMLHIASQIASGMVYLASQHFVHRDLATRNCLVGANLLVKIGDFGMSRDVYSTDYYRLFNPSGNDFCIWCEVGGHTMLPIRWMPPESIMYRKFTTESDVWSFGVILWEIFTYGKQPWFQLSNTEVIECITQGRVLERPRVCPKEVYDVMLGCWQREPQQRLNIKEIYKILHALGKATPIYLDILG
Chain of TRKA(G595R) (P04629 33-796 G595R): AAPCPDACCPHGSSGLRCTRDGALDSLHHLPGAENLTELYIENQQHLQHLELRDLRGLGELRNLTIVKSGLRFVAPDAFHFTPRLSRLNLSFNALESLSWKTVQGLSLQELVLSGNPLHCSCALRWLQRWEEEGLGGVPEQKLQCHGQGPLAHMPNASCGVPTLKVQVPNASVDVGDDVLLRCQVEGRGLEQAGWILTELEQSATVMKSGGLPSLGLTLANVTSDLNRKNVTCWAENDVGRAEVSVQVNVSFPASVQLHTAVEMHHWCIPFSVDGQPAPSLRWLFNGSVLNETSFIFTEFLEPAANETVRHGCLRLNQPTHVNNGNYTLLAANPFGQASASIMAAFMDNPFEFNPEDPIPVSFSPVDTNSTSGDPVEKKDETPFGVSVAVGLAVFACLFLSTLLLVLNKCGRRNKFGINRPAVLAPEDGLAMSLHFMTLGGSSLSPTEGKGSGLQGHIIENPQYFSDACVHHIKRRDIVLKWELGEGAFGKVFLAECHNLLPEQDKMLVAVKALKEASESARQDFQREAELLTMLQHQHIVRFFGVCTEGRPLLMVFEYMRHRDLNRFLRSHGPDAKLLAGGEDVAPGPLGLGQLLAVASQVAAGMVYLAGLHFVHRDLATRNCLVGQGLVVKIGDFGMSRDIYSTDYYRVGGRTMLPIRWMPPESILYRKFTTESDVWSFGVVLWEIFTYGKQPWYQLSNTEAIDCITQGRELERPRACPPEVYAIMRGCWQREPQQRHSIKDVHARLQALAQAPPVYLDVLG
Chain of TRKa (P04629 33-796): as the sequence (P04629 33-796 G595R) above, with R563G counted along it

| SMILES | IC50 (TRKC(G623R)) [nM] | microsomal CLint at 1 μM [1] [µL/min/mg] | half-life at 1 μM [1] [min] | % Remaining(45 min) [1] [%] | IC50 (TRKa) [nM] | IC50 (TRKA(G595R)) [nM] |
| --- | --- | --- | --- | --- | --- | --- |
| O=C1N[C@H]2C[C@H](C2)Oc2ncc(F)cc2[C@H]2CCCN2c2nc3c1cnn3cc2F [Example 2, ((1^3E,1^4E,2^2R,5^1S,5^3S)-1^6,3^5-difluoro-4-oxa-6-aza-1(5,3)-pyrazolo[1,5-a]pyrimidine-3(3,2)-pyridine-2(1,2)-pyrrolidine-5(1,3)-cyclobutancycloheptan-7-one] | 1.8 | 106 | 13 | 9.22 | – | – |
| C[C@H]1Nc2nc3c(cnn3cc2F)C(=O)N[C@H]2C[C@H](C2)Oc2ncc(F)cc21 [Example 3, (3^1S,3^3S,6^3E,6^4E,8R)-1^5,6^6-difluoro-8-methyl-2-oxo-4,7-diaza-6(3,5)-pyrazolo[1,5-a]pyrimidine-1(2,3)-pyridine-3(1,3)-cyclobutylcyclooctane-5-one] | 1.5 | 32.1 | 43.2 | 39.49 | 0.36 | 0.89 |
| C[C@H]1Nc2ccn3ncc(c3n2)C(=O)N[C@H]2C[C@H](C2)Oc2ncc(F)cc21 [Positive control 2, reference compound] | 1.4 | 73.2 | 18.9 | 11.64 | 0.43 | 0.97 |
| O=C1N[C@H]2C[C@H](C2)Oc2ncc(F)cc2[C@H]2CCCN2c2ccn3ncc1c3n2 (stereo in doubt) [Positive control 1, reference compound] | 1.7 | 78.6 | 17.6 | 16.90 | 0.39 | 0.72 |
